According to patent US11917996B2, “Herbicidal compositions for animal grazelands and methods for applying the same” (DISCOVERY PURCHASER CORPORATION, priority 2018, dated 2024):

Key:
[1] = Dairy cow feeding study: total indaziflam residue in milk and tissues after 29 consecutive days of dosing; assay type: in vivo, lactating Holstein dairy cows (Bos taurus)
Experimental: A feeding study was conducted to measure total indaziflam residue in milk, cream (milk fat), skim milk (whey), mesenteric (omental) fat, perirenal fat, subcutaneous fat, liver, kidney, muscle and excrement (feces or faeces) from lactating Holstein dairy cows (Bos taurus) following 29 consecutive days of dosing with indaziflam. The base daily dose of indaziflam was calculated to be 31 mg/kg dry matter feed. Four groups of cows were fed at 0 (control—two cows), 31 (1×—three cows), […] (3×—three cows) and 311 (10×—seven cows) mg/kg dry matter feed.
Milk was collected twice daily from all dose groups, morning and evening. Doses were administered after the morning milking. Milk was subsampled for analysis from the controls and all dose groups on study days 0, 2, 4, 7, 10, 14, 17, 21, 25, and 28. […]
The remaining cows (one control and four from the 10× dose level) entered the depuration phase of the study. […] Milk, tissues and excrement from the cows sacrificed at each interval were analyzed to monitor the decline of the residues of indaziflam and its metabolites. […]
The individual analyte derived residues were converted to indaziflam parent equivalents and summed to give a total indaziflam residue. The limit of quantitation (LOQ) for total indaziflam residue was 0.05 ppm for fat, kidney, muscle and liver. […]

[2] = Ruminant metabolism studies with 14C-labelled indaziflam; assay type: in vivo, ruminants; conditions: [triazine-2,4-14C] and [indane-3-14C] indaziflam
Excerpt: Ruminant metabolism studies have been conducted with both [triazine-2,4-^14C] indaziflam and [indane-3-^14C] indaziflam according to current EPA guidelines. Accumulation into the edible tissues was low and the metabolism of indaziflam in ruminants is well understood.

[3] = Human safety risk assessment (aggregate dietary and non-dietary exposure, current EPA practice); design: species or system US Population
Excerpt: Human safety risk assessments have been conducted, using current EPA practice, for all the current and proposed new uses of indaziflam. Chronic aggregate dietary exposure (food and water) will utilize less than 4% of the cPAD for the US Population. Acute aggregate dietary exposure (food and water) for the U.S. population, utilizes 7% of the aPAD.

cheatgrass = test: Pre-emergence control of cheatgrass; assay type: in vivo, Bromus tectorum
Excerpt: (§1) This provides land managers with a new opportunity to start the process of eliminating the annual grass seed bank. […] This makes indaziflam an effective tool to start the process of depleting the invasive annual grass soil seed bank. Furthermore, providing long-term control of annual grasses with indaziflam results in both reduced thatch that serves as fuel for highly destructive wildfires, and the effective creation of firebreaks that protect communities of desirable perennials. As a result, native ecosystems are promoted, allowing for increased habitat for animal species of concern including wildlife and pollinators.

medusahead = test: Pre-emergence control of medusahead; assay type: in vivo, Taeniatherum caput-medusae
Excerpt: as §1

ventenata = test: Pre-emergence control of ventenata; assay type: in vivo, Ventenata dubia
Excerpt: as §1

[4] = pH 7; cited from earlier work

In the case of `Cc1ccc2c(c1)[C@H](Nc1nc(N)nc(C(C)F)n1)[C@@H](C)C2` (mixture of isomers) [indaziflam, N2-[(1R,2S)-2,3-dihydro-2,6-dimethyl-1H-inden-1-yl]-6-[(1RS)-1-fluoroethyl]-1,3,5-triazine-2,4-diamine], the “Average total indaziflam residues in muscle” value ([1]; 1× rate, Day 29, LOQ 0.05 ppm) is reported as “< LOQ”, the “Residues in all tissues and milk in the depuration phase” value ([1]; 10× dose cows, 3 to 21 days after end of dosing) is reported as “declined rapidly” and the “Accumulation into the edible tissues” value [2] is reported as “low”. For the same compound, the “Non-dietary and aggregate margins of exposure (food, drinking water, and non-dietary)” value [3] was “above the Level of Concern”, the “Acute aggregate dietary exposure (food and water), utilization of the aPAD” value ([3]; U.S. population) was 7 % of the aPAD and the “Chronic aggregate dietary exposure (food and water), utilization of the cPAD” value ([3]; US Population, all current and proposed new uses) was “less than 4 % of the cPAD”. The “Pre-emergence effectiveness compared with imazapic” value (cheatgrass; cheatgrass) was “significantly more effective”, the “Long-term control of cheatgrass” value (cheatgrass; single application) was “at least three years” and the “Pre-emergence effectiveness compared with imazapic” value (medusahead) was “significantly more effective”. The “Pre-emergence effectiveness compared with imazapic” value (ventenata) was “significantly more effective” and the “log Kow” value [4] was 2.8.
